# Results: PubChem BioAssay (NCI)
#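 Results reflect a 48-hour exposure of cells in 96-well plates to compound at five concentrations. GI50: concentration for 50% inhibition of growth. Definition used: TGI = concentration required for complete inhibition of growth.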
# Columns and labels:
# Assay in all cases: DTP human tumour cell line panel, 48 h
# SF-295 CNS = tested on: SF-295 CNS
# LOX IMVI melanoma = tested on: LOX IMVI melanoma
# NCI-H23 lung = tested on: NCI-H23 lung
# SK-OV-3 ovarian = tested on: SK-OV-3 ovarian
# SNB-19 CNS = tested on: SNB-19 CNS
# UACC-257 melanoma = tested on: UACC-257 melanoma
# SK-MEL-2 melanoma = tested on: SK-MEL-2 melanoma
# UACC-62 melanoma = tested on: UACC-62 melanoma
# HL-60(TB) leukemia = tested on: HL-60(TB) leukemia
# MDA-MB-435 = tested on: MDA-MB-435
SMILES,GI50 (SF-295 CNS),TGI (SF-295 CNS),GI50 (LOX IMVI melanoma),TGI (LOX IMVI melanoma),GI50 (NCI-H23 lung),TGI (NCI-H23 lung),GI50 (SK-OV-3 ovarian),TGI (SK-OV-3 ovarian),GI50 (SNB-19 CNS),TGI (SNB-19 CNS),GI50 (UACC-257 melanoma),TGI (UACC-257 melanoma),GI50 (SK-MEL-2 melanoma),TGI (SK-MEL-2 melanoma),GI50 (UACC-62 melanoma),TGI (UACC-62 melanoma),TGI (HL-60(TB) leukemia),GI50 (MDA-MB-435),TGI (MDA-MB-435),GI50 (HL-60(TB) leukemia)
COc1ccc(C2=NN(C(=O)c3cc(OC)c(OC)c(OC)c3)C(c3ccc(Cl)cc3)C2)cc1OC (stereo unspecified),0.565 µM,> 100 µM,3.63 µM,> 100 µM,5.78 µM,> 90.1 µM,2.89 µM,27.4 µM,4.15 µM,44 µM,8.6 µM,77.8 µM,3.71 µM,63.6 µM,0.549 µM,15.5 µM,,,,
COc1ccc2c(c1)[n+]([O-])c(-c1ccccc1)c(N)[n+]2[O-],,> 100 µM,,> 100 µM,,61.7 µM,,> 100 µM,,> 100 µM,,71.6 µM,,> 100 µM,,> 100 µM,> 100 µM,,,
COC(=O)C1=C(C(=O)OC)C23CC1C1C(C(=O)OC)=C(C(=O)OC)C12C1C=CC3C2C(=O)OC(=O)C21 (stereo unspecified),,> 100 µM,,,,> 100 µM,,,,> 100 µM,,> 100 µM,,> 100 µM,,> 100 µM,> 100 µM,,,
Oc1ccc(O)c(-c2cc(-c3ccccc3)nn2-c2ccccc2)c1,28.5 µM,> 100 µM,10.2 µM,25 µM,14.3 µM,32.5 µM,,,23.9 µM,> 100 µM,18 µM,52.1 µM,34 µM,> 100 µM,11.9 µM,44.9 µM,> 100 µM,18.4 µM,> 100 µM,24.9 µM
CN[C@@H](C)[C@@H](N)c1ccccc1,,> 100 µM,,> 100 µM,,> 100 µM,,> 100 µM,,> 100 µM,,> 100 µM,,,,> 100 µM,,,,
O=C(CSC(c1ccccc1)c1ccccc1)N/N=C/c1cccc(Cl)c1,22.9 µM,44.8 µM,17.9 µM,33.3 µM,14.9 µM,29 µM,,,,,14.6 µM,32.1 µM,15.7 µM,30.1 µM,16 µM,30.3 µM,33.9 µM,22.5 µM,43.7 µM,13.8 µM
COc1ccc2c(c1)C(=O)c1c-2c(Nc2ccc(C(C)=O)cc2)nc2ccccc12,33.8 µM,> 100 µM,54.7 µM,> 100 µM,18 µM,99.2 µM,,,14.5 µM,37.3 µM,91.1 µM,> 100 µM,97.7 µM,> 100 µM,21.9 µM,> 100 µM,> 100 µM,> 100 µM,> 100 µM,> 100 µM
CC(=O)c1c(C)n(C)c2c1nnc1ccccc12,,> 100 µM,,> 100 µM,,> 100 µM,,> 100 µM,,> 100 µM,,> 100 µM,,> 100 µM,,> 100 µM,,,> 100 µM,
COc1ccc(-c2nn(-c3cccc(NC(=O)c4ccc5c(c4)OCCO5)c3)cc2-c2ccncc2)cc1Cl,1.56 µM,4.43 µM,3 µM,13 µM,2.71 µM,21.3 µM,3.82 µM,> 100 µM,4.63 µM,98.1 µM,3.17 µM,20.5 µM,2.36 µM,7.15 µM,1.46 µM,15.9 µM,5.96 µM,,,2 µM
O=C1N(c2ccccc2)C(=O)C2(SC=NN2Cc2ccccc2)N1c1ccccc1 (stereo unspecified),,> 100 µM,,> 100 µM,,> 100 µM,,> 100 µM,,> 100 µM,,> 100 µM,,,,> 100 µM,> 100 µM,,,
O=C(Nc1ccc(CN2CCOCC2)cc1)c1[nH]ncc1Nc1ncnc2sccc12,0.484 µM,16.5 µM,,,0.358 µM,2.49 µM,0.103 µM,> 100 µM,0.703 µM,> 100 µM,1.96 µM,25.2 µM,0.36 µM,2.14 µM,0.707 µM,5.7 µM,0.72 µM,0.525 µM,11.7 µM,0.249 µM
COc1ccc(N=Nc2c(-c3ccccc3)nn(C(=O)CC(=O)Nc3cccc(Cl)c3)c2-c2ccccc2)cc1,,> 100 µM,,> 100 µM,,> 100 µM,,> 100 µM,,> 100 µM,,> 100 µM,,> 100 µM,,> 100 µM,> 100 µM,,,
CC1(C)CCc2cc3c(cc2O1)OCC1c2cc4c(cc2OC31)OCO4 (stereo unspecified),,> 100 µM,,> 100 µM,,> 100 µM,,> 100 µM,,> 100 µM,,> 100 µM,,,,> 100 µM,> 100 µM,,,
O=c1cccccc1NCCCCCCNc1cccccc1=O,,> 100 µM,,> 100 µM,,> 100 µM,,> 100 µM,,> 100 µM,,> 100 µM,,> 100 µM,,> 100 µM,> 100 µM,,,
Cc1cccc(C(=O)/C=C/SC(=NC#N)SCc2ccccc2)c1,21.2 µM,88.6 µM,26.9 µM,> 100 µM,20.9 µM,47 µM,> 100 µM,> 100 µM,36.1 µM,> 100 µM,18.1 µM,35.9 µM,48.5 µM,> 100 µM,19.4 µM,40.7 µM,,23.1 µM,72.1 µM,
COc1cccc2c1-c1c(c3ccc([N+](=O)[O-])cc3c(=O)n1CCCCl)C2=O,1.82 µM,> 50 µM,1.23 µM,> 50 µM,24.4 µM,> 50 µM,21.1 µM,> 50 µM,12.4 µM,> 50 µM,> 50 µM,> 50 µM,48.8 µM,> 50 µM,2.42 µM,18.8 µM,,> 50 µM,> 50 µM,
